Here are results for 6 compounds from patent US10646478B2, “Methods for treatment of melanoma” (CHILDREN'S MEDICAL CENTER CORPORATION, priority 2011, dated 2020).

The target in one assay is T1, P. falciparum DHODH (Plasmodium falciparum, UniProt Q08210).
T1 sequence (Q08210 24-569): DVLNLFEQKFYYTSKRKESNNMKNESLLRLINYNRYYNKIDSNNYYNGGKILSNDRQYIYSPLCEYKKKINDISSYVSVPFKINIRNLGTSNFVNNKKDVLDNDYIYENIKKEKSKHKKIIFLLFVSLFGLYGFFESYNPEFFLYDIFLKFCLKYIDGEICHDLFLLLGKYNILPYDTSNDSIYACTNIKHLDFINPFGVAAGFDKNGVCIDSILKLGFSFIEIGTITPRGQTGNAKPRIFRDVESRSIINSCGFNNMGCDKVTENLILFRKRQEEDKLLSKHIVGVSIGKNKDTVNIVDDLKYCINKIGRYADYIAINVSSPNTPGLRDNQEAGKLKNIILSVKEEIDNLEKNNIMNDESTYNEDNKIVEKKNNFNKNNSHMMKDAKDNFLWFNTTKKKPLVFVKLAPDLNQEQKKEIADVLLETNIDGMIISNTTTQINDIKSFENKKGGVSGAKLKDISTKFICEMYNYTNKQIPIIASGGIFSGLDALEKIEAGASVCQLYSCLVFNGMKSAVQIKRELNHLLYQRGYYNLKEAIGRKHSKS
Put plainly: In vitro DHODH assay (DCIP reduction), malarial enzyme. The class given is biochemical. As to conditions: FIG. 11. How it is done:
(§1) The DHODH activity assay monitored the reduction of 2,6-dichloroindophenol (DCIP) and was conducted in 50 μl of 100 mM HEPES (pH 8.0) containing 150 mM NaCl, 5% glycerol, 0.05% Triton X-100, 175 μM L-DHO, 18 μM decylubiquinone (CoQD), and 95 μM DCIP, arrayed in a 384-well format. The concentrations of enzymes used were as follows: P. falciparum 12.5 nM, human 7 nM. Following a 20 minute incubation at room temperature the absorbance was measured at 600 nm (Envision, PerkinElmer).

A further assay has as its system ventral melanocytes. Kind of assay: Ventral melanocytes in Xenopus embryos. The class given is in vivo. As to conditions: stage 38 embryos.
Assay [1] relates to crestin+ neural crest progenitors. Put plainly: In situ hybridization (ISH) for crestin in zebrafish embryos (chemical screen for suppressors of neural crest development). It is filed as in vivo. As to conditions: for rescue of neural crest population (crestin ISH): in the presence of leflunomide, A771726 or DH #1. How it is done:
The screen was performed essentially as previously described^31. In brief, WT embryos were collected, staged and then plated at a density of 10 embryos per well in a […] tissue culture plate in 200 ul of E3 water. At 50% epiboly, 100 ul of a 3× chemical stock was added to each well using a Hamilton liquid handling robot, yielding a final 1× concentration. For the majority of the chemicals in the library, this yielded a concentration of ˜33 uM. The libraries used were the BIOMOL 480, Sigma LOPAC 1280, and selected additional compounds obtained through the Children's Hospital Boston Chemical Screening facility. Compounds known to affect pigmentation in Xenopus were obtained from a screen previously described^32, 33. After treatment, embryos were rinsed in E3 water, pronase treated to remove chorions, washed 4× in E3 and 1× in PBT, and then fixed in 4% PFA for 24 hours. Fixed embryos were changed to 100% methanol 24 h later, and kept until the time of ISH.
Embryos underwent automated ISH using a Biolane HTI robot with a crestin riboprobe as previously described^31. All wells were manually scored by eye, assigning a score within a range of 1 (no crestin staining) to 3 (no change in crestin) to 5 (marked increase in crestin). Note was also taken of chemicals that affected migratory patterns in both A-P and D-V directions, and overall morphology. […] All hits were validated in larger, independent clutches of 100-200 embryos using chemicals obtained from independent suppliers.

The target of the next assay is human DHODH (Homo sapiens, UniProt Q02127). Kind of assay: In vitro DHODH assay (DCIP reduction), human enzyme. The class given is biochemical. As to conditions: FIG. 11. How it is done: as §1
Chain of human DHODH (Q02127 whole entry): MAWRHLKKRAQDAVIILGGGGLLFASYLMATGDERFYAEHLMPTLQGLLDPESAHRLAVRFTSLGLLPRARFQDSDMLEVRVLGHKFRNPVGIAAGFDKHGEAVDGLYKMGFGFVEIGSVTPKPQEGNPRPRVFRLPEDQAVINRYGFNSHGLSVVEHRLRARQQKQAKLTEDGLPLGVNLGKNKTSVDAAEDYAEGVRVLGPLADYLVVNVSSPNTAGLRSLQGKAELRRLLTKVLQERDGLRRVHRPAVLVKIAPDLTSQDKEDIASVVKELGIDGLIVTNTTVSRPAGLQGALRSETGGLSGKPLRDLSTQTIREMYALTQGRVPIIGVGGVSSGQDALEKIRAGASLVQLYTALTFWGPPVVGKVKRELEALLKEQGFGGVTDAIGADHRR
For assay [2], the system named is neural crest stem cells (NCSCs) from fetal (E14.5) rat gut. Put plainly: Rat neural crest stem cell assays (self-renewal, colony size, differentiation). The class given is cell-based. How it is done: Enteric NCSCs from the fetal (E14.5) rat gut were isolated using flow cytometry to select the 1%-2% of cells expressing the highest levels p75 and α4 integrin as previously described^9. Cells were plated at clonal density in two wells/treatment and cultured in self-renewal medium for 8 days in LEF, A771726 or the vehicle (DMSO) followed by differentiation medium+/−LEF, A771726 or DMSO for 6 days. Cultures were fixed in 4% PFA then stained with antibodies against peripherin, GFAP, and SMA to identify neurons (N), glia (G) and myofibroblasts (M) respectively (U=unstained cells). A total of 3 to 4 independent experiments were performed, and differences measured by ANOVA followed by Bonferonni posthoc comparison. Self-renewal medium contains: DMEM-low glucose, 15% Chick Embryo Extract (CEE), Penn/Strep (P/S), 1% N2 supplement, 2% B27 supplement, 110 nM Retinoic Acid, 50 μM 2-mercaptoethanol 20 ng/ml bFGF, and 20 ng/ml IGF-1. Differentiation medium is the same except it contains 1% CEE, 10 ng/ml bFGF and no IGF-1. Differences between groups were calculated using ANOVA followed by posthoc Sheffe.
Dissociated fetal rat gut cells were plated at clonal density in non-adherent conditions in self-renewal medium with LEF, a77 or DMSO for 10 days^10. Three to five primary neurospheres per treatment were individually re-plated in adherent conditions with LEF, a77 or DMSO and after three days were dissociated into a single cell suspension using trypsin and collagenase IV. Dissociated cells from each neurosphere were re-plated in non-adherent conditions without LEF or a77 and after 10 days, the number of secondary neurospheres were counted and compared. To assess the number of multipotent primary and secondary neurospheres, a subset of neurospheres were plated adherently for 8 days in self-renewal medium followed by 6 days in differentiation medium. Cultures were fixed in 4% PFA and stained with antibodies against peripherin, GFAP, and SMA to identify neurons (N), glia (G) and myofibroblasts (M) respectively. A total of 5 independent experiments were analyzed, and the number of multipotent secondary neurospheres on a given day are normalized to the DMSO control wells, and differences calculated by ANOVA.

The test system of another assay is A375 melanoma cells. Put plainly: In vivo xenograft study of A375 cells in nude mice. Further details: species or system mouse. As to conditions: daily i.p.; PLX4720 2.5 mg/kg, Leflunomide 7.5 mg/kg; DMSO 7.4+/−1.3-fold. How it is done: The A375 cell line was chosen for xenografts based on prior experience with PLX4720 in this line. Cells were grown to 60-70% confluence, trypsinized and 3.5×10^5 cells were transplanted into the right flank of nude mice in a volume of 200 ul. […] Tumors were measured with digital calipers on day 4, 7 and 12 and growth rate was compared to the tumor size on day 0. Growth rates were compared between DMSO, PLX, LEF or […] using ANOVA with repeated measures to identify significant interactions. For the day 12 data, differences between the groups were compared using ANOVA followed by posthoc Tukey's least-squared difference.

In assay [3] the test system is pancreatic cancer (8988, PANC1) and breast cancer (MDA-MD-231) cell lines. Kind of assay: In vitro proliferation assay in non-melanoma cell lines. As to conditions: BRAF WT; 8988, PANC1, MDA-MD-231. The class given is cell-based, human. How it is done:
(§2) Human melanoma cell lines (A375, RPMI7951, Hs.294T, MAMLE-3M) were obtained from the American Type Culture Collection. The 8988 cell line was provided by Alec Kimmelman at Dana Farber, and the PANC1 and MDA-231-MB lines were provided by Rania Hartouche at Harvard. Cells were cultured in DMEM/10% FCS at 37 C, 5% CO2. For proliferation assays, 96-well clear bottom plates were used to plate cells at a density of 5,000 cells/well (RPMI7951 and A375) or 10,000 cells/well (MAMLE-3M-3M and Hs.294T) in 100 ul containing indicated concentrations of A771726 or PLX4720 or DMSO. All conditions were tested in triplicate. Media was changed at day 2, and proliferation rate was measured at day 4 using the CellTiterGlo assay kit (Promega). All values are expressed are the % of luciferase relative to the DMSO control well. Differences between groups were statistically analyzed using a generalized linear ANOVA model taking into account factors of PLX4720, A771726 and dose. IC50's were calculated using a log-logistic model.

The subject of assay [4] is human melanoma cell lines (A375, Hs.294t, RPMI7951). Put plainly: In vitro melanoma proliferation assay (CellTiterGlo). The class given is cell-based. As to conditions: RPMI7951 (BRAFV600E). How it is done: as §2
(In ATP-based viability assays light output follows the ATP content of the culture.)

Take `O=C(O)c1cc(-c2ccc(-c3ccc(-c4cc(C(=O)O)c5cc(Cl)ccc5n4)cc3)cc2)nc2ccc(Cl)cc12` [NSC210627]: the “inhibition of purified malarial DHODH” value against P. falciparum DHODH was “strong inhibition of both enzymes”. The “ventral melanocytes in Xenopus embryos” value with ventral melanocytes is on record as “reduction of ventral melanocytes”. Besides, the “crestin expression by ISH” value in assay [1] (zebrafish embryos, 50% epiboly to 24 hpf) is recorded as “strongly abrogated expression of crestin”. At human DHODH, the “inhibition of purified human DHODH” value was “strong inhibition of both enzymes, at lower concentrations in the human versus malarial forms”.

As for `CC(=O)[C@H]1CC[C@H]2[C@@H]3CCC4=CC(=O)CC[C@]4(C)[C@H]3CC[C@]12C` [progesterone], in assay [1], the “rescue of neural crest population (crestin ISH)” value (“rescue” for short) is recorded as “rescue of the neural crest population”.

For `C[C@@]1(CO)[C@H](O)CC[C@@]2(C)[C@H]1CC[C@H]1C[C@@H]3C[C@@]12CC[C@]3(O)CO` [aphidicolin], in assay [1], the “rescue” value is listed as “rescue of the neural crest population”.

Regarding `C/C(O)=C(\C#N)C(=O)Nc1ccc(C(F)(F)F)cc1` [A771726, teriflunomide], in assay [2], the “colony size reduced compared to controls” value stood at 24% and the “number of self-renewing NCSCs from primary stem cell colonies” value was 35+/−6.16 % of controls.

As for `CCCS(=O)(=O)Nc1ccc(F)c(C(=O)c2c[nH]c3ncc(Cl)cc23)c1F` [PLX4720], the “tumor growth at 12 days post-treatment” value in the assay on A375 melanoma cells is given as 5.7+/−0.16 fold. The “proliferation of non-melanoma cell lines” value in assay [3] is “no effect”. The “sensitivity of RPMI7951 to the BRAF inhibitor” value in assay [4] is listed as “significantly less sensitive than the other tested cell lines”.

In the case of `CCCCCCCCCCC1=C(C)C(=O)C(OC)=C(OC)C1=O` [decylubiquinone], the “rescue” value in assay [1] is recorded as “rescue of the neural crest population”.
